Measured values published in patent publication US5045566A, “Novel imidate insecticides” (ICI Americas Inc., priority 1989, dated 1991).

Tests used:
Format in all cases: in vivo
[1] = tested on: Cabbage Looper [Trichoplusia ni (Hubner)]; experiment: Cabbage looper leaf dip (CL), 3-5 days; conditions: percent in solution, second-instar larvae
Experimental: (§1) The compounds in Tables 1 and 2 above were tested for insecticidal activity using the following testing procedures. LC50 values, based on the results of these tests and calculated according to dosage-mortality curves, are expressed in Table 3.
Cabbage Looper [Trichoplusia ni (Hubner)]:
Test compounds were diluted in a 50-50 acetone-water solution. Cotyledons of hyzini squash (Calabacita abobrinha), approximately 1×1.5 inches, were immersed in the test solutions for 2-3 seconds and placed on a wire screen to dry. The dried leaves were placed in petri dishes containing a moistened piece of filter paper and infested with 5 second-instar cabbage looper larvae. The dishes were placed in a high humidity chamber. Mortality of the larvae was recorded 3-5 days later. Test concentrations ranged from 0.1% downward. The LC-50 value is expressed below in Table 3 under the heading "CL" in terms of percent of the test compound in solution.

[2] = tested on: Tobacco Budworm [Heliothis virescens (Fabricius)] eggs; experiment: Tobacco budworm eggs (TBW-E); conditions: percent in solution; 2-day old eggs
Experimental: as §1
Tobacco Budworm [Heliothis virescens (Fabricius)]:
(b). Eggs: Paper towel patches of 2-day old eggs of the tobacco budworm were dipped in acetone solutions of the test compound and placed in petri dishes containing a portion of larval rearing medium. Treated eggs were maintained at 78° F. and mortality was recorded after all control eggs had hatched and the young larvae were feeding on the media. Test concentrations ranged from 0.1% downward. The LC-50 value is expressed below in Table 3 under the heading "TBW-E" in terms of percent of the test compound in the solution.

[3] = tested on: Housefly [Musca domestica]; experiment: Housefly contact mortality in dishes (HF), 48 hours; conditions: μg of test compound per 25 female flies
Experimental: as §1
Housefly [Musca domestica]:
Test compounds were diluted in acetone and aliquots pipetted onto the bottom of aluminum dishes. To ensure even spreading of the chemical on the bottom of the dishes, 1 ml of acetone containing 0.01% peanut oil was also added to each dish. After all solvents had evaporated, the dishes were placed in circular cardboard cages containing 25 female houseflies, 1-2 days old. The cages were covered on the bottom with cellophane and on the top with tulle netting, and each contained a sugar-water saturated cotton plug for maintenance of the flies. Mortality was recorded after 48 hours. Test levels ranged from 100 μg/25 female houseflies downward. The LC-50 value is expressed below in Table 3 under the heading "HF", in terms of μg of the test compound per 25 female flies.

[4] = tested on: Black Bean Aphid [Aphis fabae (Scop.)]; experiment: Black bean aphid spray test on nasturtium (BBA), 48 hours; conditions: percent of test compound in sprayed solution
Experimental: as §1
Black Bean Aphid [Aphis fabae (Scop.)]:
Nasturtium plants (Tropaeolum sp.) approximately 5 cm tall, were transplanted into sandy loam soil in small cups and infested with 25-50 black bean aphids of mixed ages. Twenty-four hours later they were sprayed to the point of runoff with 50-50 acetone-water solutions of the test compounds. Treated plants were held in the greenhouse and mortality was recorded after 48 hours. Test concentrations ranged from 0.05% downward. The LC-50 value is expressed below in Table 3 under the heading "BBA" in terms of percent of the test compound in the sprayed solution.

Row | Structure (SMILES) | LC50 CL [1] [%] | LC50 TBW E (eggs) [2] [%] | LC50 HF [3] [µg] | LC50 BBA [4] [%]
1 | CCSc1ccc(N=C(OCc2cccc(Oc3ccccc3)c2)C(C)C)cc1Cl [Compound 103] | 0.015 | > 0.1 | > 100 | 0.001
2 | CCOC(=O)c1ccc(N=C(OCc2cccc(Oc3ccccc3)c2)C(C)C)cc1Cl [Compound 104] | 0.004 | > 0.1 | > 100 | 0.003
3 | CC(C)(C)C(=Nc1ccc(Cl)c([N+](=O)[O-])c1)OCc1cccc(Oc2ccccc2)c1 [Compound 105] | 0.018 | > 0.1 | > 100 | 0.05
4 | CC(C)(C)C(=Nc1ccc(Br)c(Cl)c1)OCc1cccc(Oc2ccccc2)c1 [Compound 106] | 0.014 | > 0.1 | > 100 | 0.01
5 | Cc1ccc(N=C(OCc2cccc(Oc3ccccc3)c2)C(C)(C)C)cc1Cl [Compound 107] | 0.007 | > 0.1 | > 100 | 0.01
6 | Cc1cc(Cl)ccc1N=C(OCc1cccc(Oc2ccccc2)c1)C(C)(C)C [Compound 109] | 0.002 | > 0.1 | > 100 | > 0.05
7 | CC(C)(Cl)C(=Nc1ccc(Cl)c2ccccc12)OCc1cccc(Oc2ccccc2)c1 [Compound 111] | 0.1 | > 0.1 | > 100 | 0.003
8 | Cc1cc(N=C(OCc2cccc(Oc3ccccc3)c2)C(C)C)ccc1Br [Compound 127] | 0.01 | 0.04 | 58 | 0.001
9 | CC(C)C(=Nc1c(Br)cc(F)cc1Br)OCc1cccc(Oc2ccccc2)c1 [Compound 130] | 0.005 | > 0.1 | > 100 | 0.05
10 | Cc1cc(Br)ccc1N=C(OCc1cccc(Oc2ccccc2)c1)C(C)C [Compound 133] | 0.005 | 0.1 | 66 | 0.003
11 | CC(C)(C)C(=Nc1cccc(Br)c1)OCc1cccc(Oc2ccccc2)c1 [Compound 134] | 0.015 | > 0.1 | > 100 | > 0.05
12 | CC(C)C(=Nc1cccc(I)c1)OCc1cccc(Oc2ccccc2)c1 [Compound 136] | 0.004 | 0.08 | 9 | 0.002
13 | CSc1ccc(N=C(OCc2cccc(Oc3ccccc3)c2)C(Cl)Cl)cc1 [Compound 141] | < 0.1 | > 0.1 | 35 | 0.006
14 | Cc1cccc(N=C(OCc2cccc(Oc3ccccc3)c2)C(C)C)c1C [Compound 148] | 0.0025 | 0.025 | 18 | 0.0003
15 | COc1ccc(N=C(OCc2cccc(Oc3ccccc3)c2)C(C)C)c(C)c1 [Compound 149] | 0.007 | 0.05 | 17 | 0.001
16 | COc1ccc(C)cc1N=C(OCc1cccc(Oc2ccccc2)c1)C(C)C [Compound 150] | 0.01 | > 0.1 | 89 | 0.03
17 | CCCCc1ccc(N=C(OCc2cccc(Oc3ccccc3)c2)C(C)C)cc1 [Compound 152] | 0.009 | > 0.1 | > 100 | 0.01
18 | CCC(=Nc1ccc(CC)cc1)OCc1cccc(Oc2ccccc2)c1 [Compound 157] | 0.009 | > 0.1 | 25 | 0.002
19 | Cc1ccc(N=C(OCc2cccc(Oc3ccccc3)c2)C(C)C)cc1C [Compound 158] | 0.003 | 0.1 | 9 | 0.0015

Row | Structure (SMILES) | LC50 CL [1] [%] | LC50 TBW E (eggs) [2] [%] | LC50 HF [3] [µg] | LC50 BBA [4] [%]
20 | CCOc1ccc(N=C(OCc2cccc(Oc3ccccc3)c2)C(C)(C)C)cc1 [Compound 164] | 0.005 | > 0.1 | > 100 | > 0.05
21 | CC(C)c1ccc(N=C(OCc2cccc(Oc3ccccc3)c2)C(C)(C)C)cc1 [Compound 165] | 0.007 | > 0.1 | > 100 | > 0.05
22 | CSc1cccc(N=C(OCc2cccc(Oc3ccccc3)c2)C(C)C)c1 [Compound 166] | 0.009 | > 0.1 | 22 | 0.001
23 | Cc1ccc(N=C(OCc2cccc(Oc3ccccc3)c2)C(C)(C)C)cc1C [Compound 167] | 0.02 | > 0.1 | > 100 | > 0.05
24 | CCOC(=O)c1cccc(N=C(OCc2cccc(Oc3ccccc3)c2)C(C)(C)C)c1 [Compound 168] | 0.1 | > 0.1 | > 100 | > 0.05
25 | COc1ccc(N=C(OCc2cccc(Oc3ccccc3)c2)C(C)C)cc1OC [Compound 169] | 0.009 | > 0.1 | 10 | 0.003
26 | CC(C)(C)C(=Nc1cccc([N+](=O)[O-])c1)OCc1cccc(Oc2ccccc2)c1 [Compound 175] | 0.018 | > 0.1 | > 100 | > 0.05
27 | CC(C)C(=Nc1ccc(F)cc1)OCc1cccc(Oc2cccc(Cl)c2)c1 [Compound 205] | 0.004 | > 0.1 | 50 | 0.03
28 | CC(C)C(=Nc1ccc(F)cc1)OCc1cccc(Oc2ccc(F)cc2F)c1 [Compound 206] | 0.0017 | > 0.1 | 50 | 0.03
29 | CC(C)C(=Nc1ccc(C#N)cc1)OCc1cccc(Oc2cccc(Cl)c2)c1 [Compound 208] | 0.0035 | > 0.1 | 27 | 0.05
30 | CCC(C)C(=Nc1ccc(Cl)c(Cl)c1)OCc1cccc(Oc2ccc(F)cc2)c1 (stereo not shown) [Compound 211] | 0.0017 | > 0.1 | 61 | 0.01
31 | CC(C)C(=Nc1ccc(F)c(F)c1)OCc1cccc(Oc2ccc(C#N)cc2)c1 [Compound 212] | 0.0005 | 0.045 | 20 | 0.05
32 | CC(C)C(=Nc1ccc(Cl)c(Cl)c1)OCc1cccc(Oc2ccc(F)cc2F)c1 [Compound 213] | 0.00075 | > 0.1 | > 100 | 0.01
33 | CC(C)C(=Nc1ccc(F)c(F)c1)OCc1cccc(Oc2ccc(F)cc2F)c1 [Compound 214] | 0.0003 | 0.04 | 19 | 0.01
34 | CC(C)C(=Nc1ccc(F)c(Cl)c1)OCc1cccc(Oc2cc(F)cc(F)c2)c1 [Compound 215] | 0.00075 | > 0.1 | 75 | 0.05
35 | CC(C)C(=Nc1ccc(Cl)c(Cl)c1)OCc1cccc(Oc2ccc(F)c(F)c2)c1 [Compound 218] | 0.0003 | 0.025 | 25 | 0.003
36 | COc1ccc(Oc2cccc(COC(=Nc3ccc(F)cc3)C(C)C)c2)cc1 [Compound 220] | 0.007 | > 0.1 | 85 | 0.03
37 | COc1ccc(Oc2cccc(COC(=Nc3ccc(F)c(Cl)c3)C(C)C)c2)cc1 [Compound 221] | 0.0027 | > 0.1 | 62 | 0.01
